# Test results published in ChEMBL document CHEMBL3885881, “DrugMatrix”.
# Species on record: Rattus norvegicus
# Assay: DrugMatrix - Regimen: Daily Repeat
# Assay type: toxicity, organism-based, Sprague-Dawley
# Set-up: regimen Daily Repeat, gender Male, age 6-8 weeks
# Details: in vivo, po, route oral GAVAGE, vehicle .5 % CMC; for BASOPHIL / EOSINOPHIL / ERYTHROCYTE COUNT / HEMATOCRIT / HEMOGLOBIN / LEUKOCYTE COUNT / LYMPHOCYTE / MEAN CORPUSCULAR HEMOGLOBIN / MEAN CORPUSCULAR HEMOGLOBIN CONCENTRATION / MEAN CORPUSCULAR VOLUME / MONOCYTE / NEUTROPHIL / PLATELET COUNT: tissue Blood; for ALANINE AMINOTRANSFERASE / ALBUMIN / ALKALINE PHOSPHATASE / ASPARTATE AMINOTRANSFERASE / BLOOD UREA NITROGEN / CHOLESTEROL / CREATINE PHOSPHOKINASE / CREATININE / GLUCOSE / PHOSPHORUS / POTASSIUM / SODIUM / TOTAL BILIRUBIN / TOTAL PROTEIN: tissue Plasma
# [1] = 0 mg/kg, 72 h, dose level Control, time 3 day
# [2] = 0 mg/kg, 120 h, dose level Control, time 5 day
# [3] = 45 mg/kg, 72 h, dose level High, time 3 day
# [4] = 45 mg/kg, 120 h, dose level High, time 5 day
# [5] = […], 72 h, dose 1.1 mg/Kg, dose level Low, time 3 day
# [6] = […], 120 h, dose 1.1 mg/Kg, dose level Low, time 5 day
compound,measurement,setting,value
COc1cc(NC(C)CCCN)c2ncccc2c1 (configuration not stated) [PRIMAQUINE],BASOPHIL,[1],0%
same,EOSINOPHIL,[1],0%
same,ERYTHROCYTE COUNT,[1],6.19 x10E6/uL
same,HEMATOCRIT,[1],36.94%
same,HEMOGLOBIN,[1],14.58 G/DL
same,LEUKOCYTE COUNT,[1],11.54 x10E3/uL
same,LYMPHOCYTE,[1],84.8%
same,MEAN CORPUSCULAR HEMOGLOBIN,[1],23.58 pg
same,MEAN CORPUSCULAR HEMOGLOBIN CONCENTRATION,[1],39.44 G/DL
same,MEAN CORPUSCULAR VOLUME,[1],59.76 fL
same,MONOCYTE,[1],1.4%
same,NEUTROPHIL,[1],13.8%
same,PLATELET COUNT,[1],1068.8 x10E3/uL
same,ALANINE AMINOTRANSFERASE,[1],38.17 u/L
same,ALBUMIN,[1],3.88 G/DL
same,ALKALINE PHOSPHATASE,[1],391.33 u/L
same,ASPARTATE AMINOTRANSFERASE,[1],69.83 u/L
same,BLOOD UREA NITROGEN,[1],15 mg/dL
same,CHOLESTEROL,[1],72.17 mg/dL
same,CREATINE PHOSPHOKINASE,[1],174.33 u/L
same,CREATININE,[1],0.58 mg/dL
same,GLUCOSE,[1],192.67 mg/dL
same,PHOSPHORUS,[1],10.52 mg/dL
same,POTASSIUM,[1],6.8 MEQ/L
same,SODIUM,[1],149.67 MEQ/L
same,TOTAL BILIRUBIN,[1],0.78 mg/dL
same,TOTAL PROTEIN,[1],6.28 G/DL
same,BASOPHIL,[2],0%
same,EOSINOPHIL,[2],0.17%
same,ERYTHROCYTE COUNT,[2],6.72 x10E6/uL
same,HEMATOCRIT,[2],40.02%
same,HEMOGLOBIN,[2],15.83 G/DL
same,LEUKOCYTE COUNT,[2],9.5 x10E3/uL
same,LYMPHOCYTE,[2],87.17%
same,MEAN CORPUSCULAR HEMOGLOBIN,[2],23.57 pg
same,MEAN CORPUSCULAR HEMOGLOBIN CONCENTRATION,[2],39.62 G/DL
same,MEAN CORPUSCULAR VOLUME,[2],59.55 fL
same,MONOCYTE,[2],1.67%
same,NEUTROPHIL,[2],11%
same,PLATELET COUNT,[2],1053.67 x10E3/uL
same,ALANINE AMINOTRANSFERASE,[2],26.33 u/L
same,ALBUMIN,[2],4.02 G/DL
same,ALKALINE PHOSPHATASE,[2],316.67 u/L
same,ASPARTATE AMINOTRANSFERASE,[2],61.33 u/L
same,BLOOD UREA NITROGEN,[2],18.67 mg/dL
same,CHOLESTEROL,[2],65.17 mg/dL
same,CREATINE PHOSPHOKINASE,[2],161.17 u/L
same,CREATININE,[2],0.75 mg/dL
same,GLUCOSE,[2],177.33 mg/dL
same,PHOSPHORUS,[2],9.72 mg/dL
same,POTASSIUM,[2],6.18 MEQ/L
same,SODIUM,[2],150.5 MEQ/L
same,TOTAL BILIRUBIN,[2],0.68 mg/dL
same,TOTAL PROTEIN,[2],6.55 G/DL
same,BASOPHIL,[3],0%
same,EOSINOPHIL,[3],0.33%
same,ERYTHROCYTE COUNT,[3],6.7 x10E6/uL
same,HEMATOCRIT,[3],40.07%
same,HEMOGLOBIN,[3],15.73 G/DL
same,LEUKOCYTE COUNT,[3],10.6 x10E3/uL
same,LYMPHOCYTE,[3],76.67%
same,MEAN CORPUSCULAR HEMOGLOBIN,[3],23.53 pg
same,MEAN CORPUSCULAR HEMOGLOBIN CONCENTRATION,[3],39.3 G/DL
same,MEAN CORPUSCULAR VOLUME,[3],59.87 fL
same,MONOCYTE,[3],2.67%
same,NEUTROPHIL,[3],20.33%
same,PLATELET COUNT,[3],1053 x10E3/uL
same,ALANINE AMINOTRANSFERASE,[3],83.33 u/L
same,ALBUMIN,[3],3.73 G/DL
same,ALKALINE PHOSPHATASE,[3],304.67 u/L
same,ASPARTATE AMINOTRANSFERASE,[3],358.33 u/L
same,BLOOD UREA NITROGEN,[3],10 mg/dL
same,CHOLESTEROL,[3],77.67 mg/dL
same,CREATINE PHOSPHOKINASE,[3],213.33 u/L
same,CREATININE,[3],0.67 mg/dL
same,GLUCOSE,[3],176 mg/dL
same,PHOSPHORUS,[3],11.23 mg/dL
same,POTASSIUM,[3],6.27 MEQ/L
same,SODIUM,[3],148.33 MEQ/L
same,TOTAL BILIRUBIN,[3],0.4 mg/dL
same,TOTAL PROTEIN,[3],6.03 G/DL
same,BASOPHIL,[4],0%
same,EOSINOPHIL,[4],0%
same,ERYTHROCYTE COUNT,[4],5.75 x10E6/uL
same,HEMATOCRIT,[4],35.53%
same,HEMOGLOBIN,[4],14.07 G/DL
same,LEUKOCYTE COUNT,[4],13.03 x10E3/uL
same,LYMPHOCYTE,[4],79.67%
same,MEAN CORPUSCULAR HEMOGLOBIN,[4],24.47 pg
same,MEAN CORPUSCULAR HEMOGLOBIN CONCENTRATION,[4],39.6 G/DL
same,MEAN CORPUSCULAR VOLUME,[4],61.83 fL
same,MONOCYTE,[4],3.67%
same,NEUTROPHIL,[4],16.67%
same,PLATELET COUNT,[4],778.33 x10E3/uL
same,ALANINE AMINOTRANSFERASE,[4],35.67 u/L
same,ALBUMIN,[4],3.63 G/DL
same,ALKALINE PHOSPHATASE,[4],336.33 u/L
same,ASPARTATE AMINOTRANSFERASE,[4],78.67 u/L
same,BLOOD UREA NITROGEN,[4],12 mg/dL
same,CHOLESTEROL,[4],67.33 mg/dL
same,CREATINE PHOSPHOKINASE,[4],151.67 u/L
same,CREATININE,[4],0.57 mg/dL
same,GLUCOSE,[4],177 mg/dL
same,PHOSPHORUS,[4],10.23 mg/dL
same,POTASSIUM,[4],6.03 MEQ/L
same,SODIUM,[4],149 MEQ/L
same,TOTAL BILIRUBIN,[4],0.47 mg/dL
same,TOTAL PROTEIN,[4],5.83 G/DL
same,BASOPHIL,[5],0%
same,EOSINOPHIL,[5],1%
same,ERYTHROCYTE COUNT,[5],5.53 x10E6/uL
same,HEMATOCRIT,[5],33.77%
same,HEMOGLOBIN,[5],13.73 G/DL
same,LEUKOCYTE COUNT,[5],11.03 x10E3/uL
same,LYMPHOCYTE,[5],85%
same,MEAN CORPUSCULAR HEMOGLOBIN,[5],24.87 pg
same,MEAN CORPUSCULAR HEMOGLOBIN CONCENTRATION,[5],40.77 G/DL
same,MEAN CORPUSCULAR VOLUME,[5],61 fL
same,MONOCYTE,[5],2%
same,NEUTROPHIL,[5],12%
same,PLATELET COUNT,[5],1053.67 x10E3/uL
same,ALANINE AMINOTRANSFERASE,[5],32.33 u/L
same,ALBUMIN,[5],3.57 G/DL
same,ALKALINE PHOSPHATASE,[5],308 u/L
same,ASPARTATE AMINOTRANSFERASE,[5],56.33 u/L
same,BLOOD UREA NITROGEN,[5],11.67 mg/dL
same,CHOLESTEROL,[5],75.33 mg/dL
same,CREATINE PHOSPHOKINASE,[5],161.67 u/L
same,CREATININE,[5],0.6 mg/dL
same,GLUCOSE,[5],178 mg/dL
same,PHOSPHORUS,[5],11.23 mg/dL
same,POTASSIUM,[5],6.57 MEQ/L
same,SODIUM,[5],148 MEQ/L
same,TOTAL BILIRUBIN,[5],0.4 mg/dL
same,TOTAL PROTEIN,[5],5.63 G/DL
same,BASOPHIL,[6],0%
same,EOSINOPHIL,[6],0.33%
same,ERYTHROCYTE COUNT,[6],6.36 x10E6/uL
same,HEMATOCRIT,[6],37.73%
same,HEMOGLOBIN,[6],15.4 G/DL
same,LEUKOCYTE COUNT,[6],11.63 x10E3/uL
same,LYMPHOCYTE,[6],91.33%
same,MEAN CORPUSCULAR HEMOGLOBIN,[6],24.37 pg
same,MEAN CORPUSCULAR HEMOGLOBIN CONCENTRATION,[6],41 G/DL
same,MEAN CORPUSCULAR VOLUME,[6],59.37 fL
same,MONOCYTE,[6],1.33%
same,NEUTROPHIL,[6],7%
same,PLATELET COUNT,[6],1065 x10E3/uL
same,ALANINE AMINOTRANSFERASE,[6],27 u/L
same,ALBUMIN,[6],3.9 G/DL
same,ALKALINE PHOSPHATASE,[6],323 u/L
same,ASPARTATE AMINOTRANSFERASE,[6],65.67 u/L
same,BLOOD UREA NITROGEN,[6],15.33 mg/dL
same,CHOLESTEROL,[6],71 mg/dL
same,CREATINE PHOSPHOKINASE,[6],141.33 u/L
same,CREATININE,[6],0.6 mg/dL
same,GLUCOSE,[6],169.33 mg/dL
same,PHOSPHORUS,[6],10.37 mg/dL
same,POTASSIUM,[6],6.4 MEQ/L
same,SODIUM,[6],151.67 MEQ/L
same,TOTAL BILIRUBIN,[6],0.43 mg/dL
same,TOTAL PROTEIN,[6],6.23 G/DL
